One test has as its system BV2 cells. The test can be described thus: Nitric oxide detection with DAF in LPS-exposed BV2 cells. The class given is cell-based, mouse. The settings on record: 24 h LPS. On the procedure:
(§1) • Figure 1. Compound 1 reduces the inflammatory response against LPS in vitro. (A) Nitric oxide (NO) production in BV2 cells detected by DAF 24 h after LPS exposure and normalized by cell viability measured by MTT (n = 9). (B) qRT-PCR of TNFα (n = 9) in BV2 cells after 24 h LPS exposure. Sulforaphane (Sfn) was used as a positive control. […] Compound 1 decreases the inflammatory process 4 and 24 hours after LPS administration in vivo. Compound 1 (20 mg·kg^-1) daily was injected i.p. four days before the i.p. LPS (0.5 mg·kg^-1) administration. […] Compound 1 ameliorates the resolution of the inflammatory process triggered by LPS. […] (B) Locomotion activity measured by line crossings of an imaginary grid. […] Compound 1 reduced tau seeding in HEK-293 tau FRET biosensor measured by flow cytometer (C). […] Representative images of hyperphosphorylated tau intensity measured by AT8 and AT180 antibodies in three different regions of the hippocampus (GD, CA3 and CA1) (n = 11-12). (B) Quantification AT8 intensity, normalized to CA3 intensity of Sham animals. (C) Quantification of AT180 intensity, normalized to CA3 intensity of Sham animals (n = 9-12). […] Quantification of sarkosyl soluble (n = 10) (C) and insoluble species (D) using AT8 antibody (n = 10). Quantification of sarkosyl soluble (n = 10) (E) and insoluble species (F) using AT180 antibody (n = 10). […]

For test [1], the system named is HEK-293 FRET biosensor containing tau repeating domains. The test can be described thus: Tau seeding assay in HEK-293 tau FRET biosensor cells. The class given is cell-based. The following applies: Tg4510 mouse brain homogenate as aggregant stimulus; increasing concentrations. On the procedure: as §1
In test [2] the test system is mouse cytokines, chemokines, and growth factors. The test can be described thus: LPS in vivo model: multiplex assay of brain cytokines and chemokines (Luminex xMAP). The settings on record: 20 mg·kg^-1 i.p. The protocol: • Figure 1. Compound 1 reduces the inflammatory response against LPS in vitro. (A) Nitric oxide (NO) production in BV2 cells detected by DAF 24 h after LPS exposure and normalized by cell viability measured by MTT (n = 9). (B) qRT-PCR of TNFα (n = 9) in BV2 cells after 24 h LPS exposure. Sulforaphane (Sfn) was used as a positive control. […] Compound 1 decreases the inflammatory process 4 and 24 hours after LPS administration in vivo. Compound 1 (20 mg·kg^-1) daily was injected i.p. four days before the i.p. LPS (0.5 mg·kg^-1) administration. […] Compound 1 ameliorates the resolution of the inflammatory process triggered by LPS. Multiplex assay of cytokines 4 h (A) and 24 h (B) after the proinflammatory stimuli (n = 5). […] Compound 1 reverts brain microgliosis triggered by LPS. Representative images of brain microglia 4 h and 24 h after the proinflammatory stimuli (A). Mean intensity of IBA-1 per cell 4 h (n = 10) and 24 h (n = 7, except n = 6 LPS + Compound 1) after LPS injection (B). […] Sub-chronical Compound 1 administration improves behavioural parameters in LPS treated mice. Compound 1 (20 mg·kg^-1) was injected once a day via i.p. four days before the i.p. LPS (0.5 mg·kg^-1) administration, thereafter behavioural tests were conducted. (A) Mice weight change (T0 and T24: saline n = 17, LPS n = 17, LPS + Compound 1 n = 19, T4 and T8 saline n = 8, LPS n = 7, LPS + Compound 1 n = 8). (B) Locomotion activity measured by line crossings of an imaginary grid. (C) Scheme of NOR test. (D) Discrimination index (DI) of the mice studied: saline (n = 16), LPS (n = 9) and LPS + Compound 1 (n = 13). […] Compound 1 reduces hyperphosphorylated tau species and tau seeding in vitro. Compound 1 reduces hyperphosphorylated tau levels (AT8) in primary neuronal cultures of mice after 8 days of AVV-hTauP301L treatment. Dimethyl fumarate was used as a positive control (DMF). (A) Representative images, AT8 is shown in green and Map2, marker of neurons, is shown in white. […] Compound 1 reduced tau seeding in HEK-293 tau FRET biosensor measured by flow cytometer (C). Tg4510 mouse brain homogenate was used as aggregant stimuli. […] Data represent mean ± SEM. • Figure 7. Compound 1 reduces hyperphosphorylated tau species in adult mice with hTauP301L tauopathy after 35 days oral administration (50 mg/kg/day). (A). Representative images of hyperphosphorylated tau intensity measured by AT8 and AT180 antibodies in three different regions of the hippocampus (GD, CA3 and CA1) (n = 11-12). (B) Quantification AT8 intensity, normalized to CA3 intensity of Sham animals. (C) Quantification of AT180 intensity, normalized to CA3 intensity of Sham animals (n = 9-12). […] Compound 1 reduces insoluble forms of hyperphosphorylated tau species in adult mice with hTauP301L tauopathy after 35 days oral administration (50 mg/kg/day). (A). Representative images of WB against AT8 and (B) AT180 antibodies of sarkosyl solule and insoluble protein species. Quantification of sarkosyl soluble (n = 10) (C) and insoluble species (D) using AT8 antibody (n = 10). Quantification of sarkosyl soluble (n = 10) (E) and insoluble species (F) using AT180 antibody (n = 10). […] Compound 1 prevents cognitive decline in spatial memory behavioural paradigms in adult mice with hTauP301L tauopathy after 35 days oral administration (20 mg/kg or 50 mg/kg/day). (A) Representation of T-maze alternation test and (B) Object Location test (OLT). (C) Average percentage of success in seven independent attempts (n = 14-19). (D) Discrimination index in the OLT assay (AAV-eGFP, n = 15; AAV-hTau, n = 10; AAV-hTau + Compound 1 at 20 mg/kg, n = 5; AAV-hTau + Compound 1 at 50 mg/kg, n = 8). […] Compound 1 reduces hyperphosphorylated tau species and improves cognitive behaviour in aged (16-18 months old) mice with hTauP301L tauopathy after 35 days oral administration (50 mg/kg/day). (A). Representative images of hyperphosphorylated tau intensity measured by AT8 and AT180 antibodies in three different regions of the hippocampus (GD, CA3 and CA1) (n = 12). […]

In test [3] the test system is primary rat glial cultures. The test can be described thus: Anti-neuroinflammatory screening in LPS-treated primary glial cultures (Griess, normalized by MTT). The following applies: % reduction of nitrites, LPS alone = 100 % inflammation, read-out: Anti-neuro inflammatory effect at 3 µM (%). The format is cell-based. On the procedure: Screening for anti-inflammatory properties in primary rat glial cultures was performed according to the protocol described previously [Gameiro, Isabel et al. "Discovery of the first dual GSK3β inhibitor/Nrf2 inducer. A new multitarget therapeutic strategy for Alzheimer's disease." Scientific reports vol. 7 45701. 31 Mar. 2017, doi:10.1038/srep45701]. All compounds were evaluated at the single concentration of 3 µM. Neuroinflammation was quantified as the value of released […], measured by the Griess method, normalized by the number of viable cells measured by the MTT method [Mosmann, T. "Rapid colorimetric assay for cellular growth and survival: application to proliferation and cytotoxicity assays." Journal of immunological methods vol. 65, 1-2 (1983): 55-63. doi:10.1016/0022-1759(83)90303-4]. LPS alone was considered 100 % inflammation.
Based on the results obtained (Table 2), Compound 1 was selected for further in vitro and in vivo studies as it was endowed with the best anti-neuroinflammatory activity. Table 2: Comparative in vitro results. Cell viability/toxicity: effect of the compound per se on cell viability of […] cells measured with the MTT method. Anti-neuroinflammatory effect: % Reduction of nitrites in primary rat glial cultures. PAMPA-BBB: In vitro blood-brain barrier permeation assay, permeation rate Pe (10-6 cm.s-1). NRF2, CD (µM): Concentration of compound that doubles de activation of NRF2. ORAC: Oxygen radical absorbance capacity. LOX-5: lipoxygenase-5.

As to `COc1ccc2c(c1)CC(c1c[nH]c3ccc(OC)cc13)N2` (stereo not drawn) [Compound 1, 5-Methoxy-3-(5-methoxyindolin-2-yl)-1H-indole], the NO production result in the test with BV2 cells (10 µM, BV2 cells) was “reduced to basal levels”. Besides, the “nitric oxide (NO) in BV2 cells exposed to LPS” value in the test with BV2 cells (over the concentrations tested) is recorded as “concentration-dependent reduction”. Moreover, the “tau seeding (integrated FRET density)” value in test [1] is recorded as “reduce tau seeding ability following a concentration dependent effect”. In test [2] (4 and 24 h after LPS), the IP10 result is on record as “decreased significantly”, the KC result is on record as “decreased significantly”, the MIP2 result is “decreased significantly” and the RANTES entry was “decreased significantly”. In test [2] (4 h after LPS), the IL-6 in brain entry was “marked reduction”, the IL-7 in brain entry is “marked reduction” and the MCP-1 entry is recorded as “decreased significantly”. For the same molecule, the “Additional cytokines (Figure 3)” value in test [2] (4 h and 24 h after LPS, most of them) is “decreased with compound treatment”. Also, in test [2] (24 h after LPS), the IL-6 in brain result is recorded as “restored to basal conditions” and the IL-7 in brain result was “restored to basal conditions”. Further, the “granulocyte-colony stimulating factor (G-CSF) brain levels” value in test [2] (after LPS) is “significantly reduced”. Moreover, the inhibition at 3 µM in test [3] was 100 ± 6.6%.
